Here are results for two compounds from patent publication US11549123B2, “Plant EPSP synthases and methods of use” (PIONEER HI-BRED INTERNATIONAL, INC., priority 2015, dated 2023).

Positions count from the first letter of the chain named.

What all share (assay type): biochemical
Test [1] relates to Zea mays EPSPS variant G-W at positions 103-107 (EPSPS-TGPW; T103G P107W). The experiment in a line: EPSPS substrate saturation kinetics, maize variant 103G 107W (EPSPS-TGPW). As to the method: (§1) EPSPS activity was determined by quantifying the phosphate generated from the EPSPS reaction. Release of inorganic phosphate was coupled to reaction with 2-amino-6-mercapto-7-methylpurine ribonucleoside, catalyzed by purine-nucleoside phosphorylase (M R Webb, Proc. Natl. Acad. Sci. 89:4884-4887, 1992). The absorbance change that occurs was monitored at 360 nm, where the extinction is 11,200 M^−1 cm^−1, with a Spectramax plate reader (Molecular Devices). To determine kinetic parameters, the varied substrate was present at seven concentrations (the eighth being the blank, containing no substrate) ranging from 4 to 400 uM and the unvaried substrate present at saturation. Six microliters of 50-fold concentrated stock solutions of the varied substrate were placed in the wells of the 96-well assay plate and reactions were started with the addition of a mixture containing 25 mM Hepes, pH 7, 100 mM KCl, 0.3 mM 2-amino-6-mercapto-7-methylpurine ribonucleosde, 1 uM (1 unit/ml) purine-nucleoside phosphorylase (Sigma N8264) and 200 uM of the non-varied substrate. Reactions were monitored with a Spectramax plate reader. The Michaelis-Menten kinetics protocol of the Spectramax software was customized for the substrate concentrations used. The software returns values of KM and Vmax using the Lineweaver-Burke transformation of the Michaelis-Menten equation. To determine kcat, Vmax (uM/min) was divided by the enzyme concentration (uM). […] KI was then calculated from the following form of the Michaelis-Menten equation for competitive inhibition: KI=KM[I]/(KM app−KM) KM approximates the dissociation constant of the enzyme-substrate complex while kcat is the rate of conversion of substrate to product when the substrate concentration is saturating. kcat/KM is a widely accepted parameter for catalytic efficiency when substrate concentration is low (˜KM). […] The parameter kcat/KM×KI is used to quantify both catalytic efficiency and insensitivity and thus the overall fitness of the enzyme.
(§2) NNK-enabled saturation mutagenesis was performed at positions 103 and 107 in the maize EPSPS sequence, and transformed BL21 DE3 cells were screened as described above.

Test [2] deals with T1, Zea mays EPSPS variant G-W at positions 103-107 (EPSPS-TGPW; T103G P107W) (Zea mays, UniProt O24566, P106W/T102G).
T1 sequence (O24566 with tags, fused parts or gaps T102G/P106W): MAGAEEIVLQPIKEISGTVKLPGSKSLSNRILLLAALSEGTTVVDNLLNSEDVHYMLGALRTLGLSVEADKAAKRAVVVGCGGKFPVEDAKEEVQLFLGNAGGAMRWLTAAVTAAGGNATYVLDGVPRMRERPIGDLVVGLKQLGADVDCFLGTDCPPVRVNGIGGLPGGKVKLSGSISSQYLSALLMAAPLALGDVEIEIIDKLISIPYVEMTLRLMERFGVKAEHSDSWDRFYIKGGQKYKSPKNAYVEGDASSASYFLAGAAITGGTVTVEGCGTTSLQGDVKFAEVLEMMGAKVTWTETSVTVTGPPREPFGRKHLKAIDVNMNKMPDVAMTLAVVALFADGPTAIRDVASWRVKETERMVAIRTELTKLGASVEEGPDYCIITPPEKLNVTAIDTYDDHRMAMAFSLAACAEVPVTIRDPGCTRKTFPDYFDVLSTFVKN
The test is described as above. As for the experimental part:
as §1, §2

The target of test [3] is T2, Zea mays EPSPS variant V-G at positions 103-107 (Zea mays, UniProt O24566, P106G/T102V).
T2 sequence (O24566 with tags, fused parts or gaps T102V/P106G): T1 sequence (O24566 with tags, fused parts or gaps T102G/P106W) with G103V, W107G
The experiment in a line: EPSPS substrate saturation kinetics, maize variant 103V 107G. As for the experimental part: as §1, with “enzyme. […]” for “enzyme.”

Setting [4] is: PEP as substrate, glyphosate as inhibitor.

On to `C=C(OP(=O)(O)O)C(=O)O` [PEP, phosphoenolpyruvate], for which the “catalytic efficiency (kcat/KM) relative to native maize EPSPS” value in test [1] (PEP) was determined as 5%. Also, in test [1] (relative to native maize EPSPS), the “higher KM for PEP” value is given as 5 fold. Moreover, in test [1] (relative to native maize EPSPS), the lower kcat came to 4 fold. The kcat stood at 379 in test [2] (PEP varied) and 324 in test [3] (PEP varied).

`O=C(O)CNCP(=O)(O)O` [glyphosate, N-phosphonomethylglycine]: the “less sensitive to glyphosate” value in test [1] (relative to native maize EPSPS) was “about 3,000 fold”. The Ki in test [2] was determined as 403 µM; in test [3] it was 480 µM. For the same compound, the “(kcat/KM)*KI” value amounted to 1862 in test [2] (setting [4]) and 1170 in test [3] (setting [4]).

Broadly, the Ki is the equilibrium dissociation constant of an inhibitor or competing ligand from its target. Low values mean higher affinity, high ones lower affinity.
